Data from patent publication US11642339B2 (THERAVANCE BIOPHARMA R&D IP, LLC, priority 2017, dated 2023).

Legend:
[1] = test system: subjects with diabetic or idiopathic gastroparesis; assay: DIGEST I Phase 2b: weekly GCSI-24H total score; conditions: 30 mg/day;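 also: Patient-reported daily electronic-diary symptom index rating nausea/vomiting, postprandial fullness/early satiety and bloating, averaged weekly, once-daily oral capsule taken before breakfast, baseline from 1-week pretreatment period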
[2] = test system: subjects with diabetic or idiopathic gastroparesis; assay: DIGEST I: responder analysis of GRS Summary Scores;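 also: weekly responder means a clinically relevant symptom change versus baseline, and weeks with missing data (dropouts) count as non-response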
[3] = Week 14 (off therapy), diabetic patients
[4] = Week 14 (off therapy), idiopathic patients
[5] = 5 mg/day, responders for at least 6 of 12 weeks, ITT
[6] = 15 mg/day, at least 6 of 12 weeks and at least 3 weeks of Weeks 9-12, ITT
[7] = 15 mg/day, diabetic gastroparesis population
[8] = 15 mg/day, idiopathic gastroparesis population
[9] = 15 mg/day, responders for at least 6 of 12 weeks, ITT
[10] = 30 mg/day, at least 6 of 12 weeks and at least 3 weeks of Weeks 9-12, ITT
[11] = 30 mg/day, diabetic gastroparesis population
[12] = 30 mg/day, idiopathic gastroparesis population
[13] = 30 mg/day, responders for at least 6 of 12 weeks, ITT

**Q.** For “1-isopropyl-2-oxo-1,2-dihydroquinoline-3-carboxylic acid {(1S,3R,5R)-8-[(R)-2-hydroxy-3-(methanesulfonyl-methyl-amino)propyl]-8-azabicyclo[3.2.1]oct-3-yl}amide [Velusetrag]”, which “LS Mean change from baseline, weekly GCSI-24H total score” value (shortened to “LS Mean change from baseline”) ([1]; Week 4, idiopathic patients) is on record?
**A.** −1.0 (0.18) points

**Q.** And the “LS Mean Difference vs placebo, weekly GCSI-24H total score” value (from here on “LS Mean Difference vs placebo”) ([1]; Week 8, ITT)?
**A.** −0.0 (0.20) points

**Q.** And the “LS Mean change from baseline” value ([1]; Week 8, ITT)?
**A.** −1.3 (0.14) points

**Q.** What about the “LS Mean Difference vs placebo” value ([1]; Week 8, diabetic patients) of the same substance?
**A.** 0.2 points

**Q.** And the “LS Mean change from baseline” value ([1]; Week 8, diabetic patients)?
**A.** −1.3 points

**Q.** And the “LS Mean Difference vs placebo” value ([1]; Week 8, idiopathic patients)?
**A.** −0.2 (0.29) points

**Q.** What about the “LS Mean Difference vs placebo” value ([1]; Week 12, ITT) of the same substance?
**A.** −0.1 (0.22) points

**Q.** What about the “LS Mean change from baseline” value ([1]; Week 12, ITT) of the same substance?
**A.** −1.5 (0.15) points

**Q.** And the “LS Mean Difference vs placebo” value ([1]; Week 12, diabetic patients)?
**A.** 0.1 points

**Q.** What about the “LS Mean change from baseline” value ([1]; Week 12, diabetic patients) of the same substance?
**A.** −1.6 points

**Q.** And the “LS Mean Difference vs placebo” value ([1]; Week 12, idiopathic patients)?
**A.** −0.2 (0.30) points

**Q.** And the “LS Mean change from baseline” value ([1]; Week 12, idiopathic patients)?
**A.** −1.3 (0.21) points

**Q.** What about the “LS Mean Difference vs placebo” value [1, 3] of the same substance?
**A.** −0.1 points

**Q.** And the “LS Mean change from baseline” value [1, 3]?
**A.** −1.7 points

**Q.** And the “LS Mean Difference vs placebo” value [1, 4]?
**A.** 0.0 (0.29) points

**Q.** And the “LS Mean change from baseline” value [1, 4]?
**A.** −1.0 (0.20) points

**Q.** What about the “LS Proportion of positive responders; Summary Score 1” value (from here on “LS Proportion … Summary Score 1”) [2, 5] of the same substance?
**A.** 0.54

**Q.** And the “LS Proportion of positive responders; Summary Score 2” value (from here on “LS Proportion … Summary Score 2”) [2, 5]?
**A.** 0.57

**Q.** What about the “Responders, %; Summary Score 1” value [2, 5] of the same substance?
**A.** (55.9) %

**Q.** And the “Responders, %; Summary Score 2” value [2, 5]?
**A.** (57.6) %

**Q.** What about the “Responders, n; Summary Score 1” value [2, 5] of the same substance?
**A.** 33

**Q.** And the “Responders, n; Summary Score 2” value [2, 5]?
**A.** 34

**Q.** And the “LS Proportion … Summary Score 1” value [2, 6]?
**A.** 0.45

**Q.** And the “LS Proportion … Summary Score 2” value [2, 6]?
**A.** 0.43

**Q.** What about the “Responders, %; Summary Score 1” value [2, 6] of the same substance?
**A.** (45.3) %

**Q.** And the “Responders, %; Summary Score 2” value [2, 6]?
**A.** (43.4) %

**Q.** And the “Responders, n; Summary Score 1” value [2, 6]?
**A.** 24

**Q.** And the “Responders, n; Summary Score 2” value [2, 6]?
**A.** 23

**Q.** What about the “LS Proportion … Summary Score 1” value [2, 7] of the same substance?
**A.** 0.44

**Q.** And the “LS Proportion … Summary Score 2” value [2, 7]?
**A.** 0.31

**Q.** And the “Responders, %; Summary Score 1” value [2, 7]?
**A.** (44.8) %

**Q.** What about the “Responders, %; Summary Score 2” value [2, 7] of the same substance?
**A.** (34.5) %

**Q.** And the “Responders, n; Summary Score 1” value [2, 7]?
**A.** 13

**Q.** And the “Responders, n; Summary Score 2” value [2, 7]?
**A.** 10

**Q.** And the “LS Proportion … Summary Score 1” value [2, 8]?
**A.** 0.48

**Q.** What about the “LS Proportion … Summary Score 2” value [2, 8] of the same substance?
**A.** 0.58

**Q.** What about the “Responders, %; Summary Score 1” value [2, 8] of the same substance?
**A.** (45.8) %

**Q.** And the “Responders, %; Summary Score 2” value [2, 8]?
**A.** (54.2) %

**Q.** And the “Responders, n; Summary Score 1” value [2, 8]?
**A.** 11

**Q.** What about the “Responders, n; Summary Score 2” value [2, 8] of the same substance?
**A.** 13

**Q.** And the “LS Proportion … Summary Score 1” value [2, 9]?
**A.** 0.49

**Q.** What about the “LS Proportion … Summary Score 2” value [2, 9] of the same substance?
**A.** 0.51

**Q.** What about the “Responders, %; Summary Score 1” value [2, 9] of the same substance?
**A.** (49.1) %

**Q.** What about the “Responders, %; Summary Score 2” value [2, 9] of the same substance?
**A.** (50.9) %

**Q.** And the “Responders, n; Summary Score 1” value [2, 9]?
**A.** 26

**Q.** And the “Responders, n; Summary Score 2” value [2, 9]?
**A.** 27

**Q.** What about the “LS Proportion … Summary Score 1” value [2, 10] of the same substance?
**A.** 0.44

**Q.** What about the “LS Proportion … Summary Score 2” value [2, 10] of the same substance?
**A.** 0.45

**Q.** And the “Responders, %; Summary Score 1” value [2, 10]?
**A.** (47.4) %

**Q.** And the “Responders, %; Summary Score 2” value [2, 10]?
**A.** (49.1) %

**Q.** What about the “Responders, n; Summary Score 1” value [2, 10] of the same substance?
**A.** 27

**Q.** And the “Responders, n; Summary Score 2” value [2, 10]?
**A.** 28

**Q.** What about the “LS Proportion … Summary Score 1” value [2, 11] of the same substance?
**A.** 0.48

**Q.** And the “LS Proportion … Summary Score 2” value [2, 11]?
**A.** 0.45

**Q.** What about the “Responders, %; Summary Score 1” value [2, 11] of the same substance?
**A.** (50.0) %

**Q.** What about the “Responders, %; Summary Score 2” value [2, 11] of the same substance?
**A.** (50.0) %

**Q.** What about the “Responders, n; Summary Score 1” value [2, 11] of the same substance?
**A.** 13

**Q.** What about the “Responders, n; Summary Score 2” value [2, 11] of the same substance?
**A.** 13

**Q.** And the “LS Proportion … Summary Score 1” value [2, 12]?
**A.** 0.41

**Q.** What about the “LS Proportion … Summary Score 2” value [2, 12] of the same substance?
**A.** 0.45

**Q.** And the “Responders, %; Summary Score 1” value [2, 12]?
**A.** (45.2) %

**Q.** What about the “Responders, %; Summary Score 2” value [2, 12] of the same substance?
**A.** (48.4) %

**Q.** And the “Responders, n; Summary Score 1” value [2, 12]?
**A.** 14

**Q.** What about the “Responders, n; Summary Score 2” value [2, 12] of the same substance?
**A.** 15

**Q.** What about the “LS Proportion … Summary Score 1” value [2, 13] of the same substance?
**A.** 0.44

**Q.** And the “LS Proportion … Summary Score 2” value [2, 13]?
**A.** 0.47

**Q.** What about the “Responders, %; Summary Score 1” value [2, 13] of the same substance?
**A.** (47.4) %

**Q.** And the “Responders, %; Summary Score 2” value [2, 13]?
**A.** (50.9) %

**Q.** What about the “Responders, n; Summary Score 1” value [2, 13] of the same substance?
**A.** 27

**Q.** And the “Responders, n; Summary Score 2” value [2, 13]?
**A.** 29
